Assay results taken from BigSolDB 2.1.

CC(C)(C)[C@H](O)[C@H](Cc1ccc(Cl)cc1)n1cncn1 (racemic)
solubility (mole fraction)
Conditions | in 1,4-dioxane | in acetone | in acetonitrile | in ethanol | in ethyl acetate | in isopropanol | in n-butanol | in n-propanol | in toluene
278.15 K | 0.0156 | 0.0135 | 0.00239 | 0.00749 | 0.00783 | 0.00707 | 0.0134 | 0.0124 | 0.0416
280.65 K | 0.0168 | 0.0145 | 0.00267 | 0.0081 | 0.00895 | 0.00766 | 0.0141 | 0.0131 | 0.0426
283.15 K | 0.0183 | 0.0155 | 0.00295 | 0.00885 | 0.0104 | 0.00835 | 0.0151 | 0.0139 | 0.0437
285.65 K | 0.0203 | 0.0167 | 0.00331 | 0.00979 | 0.0118 | 0.00912 | 0.0162 | 0.0146 | 0.045
288.15 K | 0.0223 | 0.0181 | 0.00366 | 0.0107 | 0.0133 | 0.00985 | 0.0173 | 0.0155 | 0.0462
290.65 K | 0.0248 | 0.0194 | 0.00405 | 0.0117 | 0.0153 | 0.0108 | 0.0184 | 0.0163 | 0.0473
293.15 K | 0.0271 | 0.0209 | 0.00449 | 0.0128 | 0.0175 | 0.0117 | 0.0198 | 0.0172 | 0.0484
295.65 K | 0.0296 | 0.0223 | 0.00495 | 0.0138 | 0.0201 | 0.0127 | 0.0211 | 0.0182 | 0.0496
298.15 K | 0.0324 | 0.0239 | 0.00544 | 0.0149 | 0.0228 | 0.0138 | 0.0224 | 0.0192 | 0.0508
300.65 K | 0.0351 | 0.0253 | 0.00596 | 0.016 | 0.0255 | 0.0149 | 0.0238 | 0.0203 | 0.0521
303.15 K | 0.0381 | 0.0269 | 0.00653 | 0.0173 | 0.029 | 0.0161 | 0.0251 | 0.0215 | 0.0533
305.65 K | 0.0412 | 0.0284 | 0.00709 | 0.0185 | 0.0324 | 0.0173 | 0.0266 | 0.0228 | 0.0546
308.15 K | 0.044 | 0.0301 | 0.00776 | 0.02 | 0.0359 | 0.0185 | 0.0279 | 0.0241 | 0.0557
310.65 K | 0.0475 | 0.0317 | 0.00846 | 0.0214 | 0.0395 | 0.0197 | 0.0295 | 0.0253 | 0.057
313.15 K | 0.0512 | 0.0335 | 0.00916 | 0.0229 | 0.0444 | 0.021 | 0.0308 | 0.0265 | 0.0584
315.65 K | 0.0551 | 0.0353 | 0.01 | 0.0246 | 0.0497 | 0.0225 | 0.0324 | 0.0278 | 0.0597
318.15 K | 0.0593 | 0.0372 | 0.011 | 0.0265 | 0.0552 | 0.0242 | 0.0341 | 0.0291 | 0.061
